The numbers were not newly measured in patent US9974743B2, “Device and method for delivery of a medicament” (Philip Morris Products S.A., priority 2009, dated 2018), which cites them from elsewhere.

For the series the following is noted: 25° C.

As for `CN1CCCC1c1cccnc1` (stereo not shown) [Nicotine Control, Nicotine], the vapor pressure was 0.04 mm Hg.
